Measurements: article PMC8205225, “Structural Basis of Metallo-β-lactamase Inhibition by N-Sulfamoylpyrrole-2-carboxylates” (ACS Infectious Diseases, 2021)
Read-outs that look alike come from different tables or passages of the source.

Columns and labels:
IMP-1 [1] = target: T1, IMP-1 (Serratia marcescens, UniProt P52699); assay: fluorogenic cephalosporin FC5 MBL inhibition assay, IMP-1; type: biochemical; conditions: FC5 5 μM, enzyme 20 pM, quadruplicate; read-out: pIC50 IMP-1 (converted)
T1 construct: made in house
Experimental: (§1) The NSPCs were screened against four of the currently most clinically relevant B1 MBLs, i.e. VIM-1, VIM-2, NDM-1, and IMP-1 (Table 1), using an assay employing the “fluorogenic” cephalosporin FC5.[40]
(§2) The inhibitory activity of NSPCs 6, 8-14 against representative B1 subfamily MBLs [obtained according to previously reported production and purification procedures: VIM-1,5 VIM-2, NDM-1 and IMP-16] was determined using a fluorogenic assay monitoring the enzymatic breakdown of the cephalosporin probe FC5.6 The FC5/meropenem assays were conducted at room temperature in clear-bottomed Greiner 384 black well microplates (FC5) or Greiner 96 well UV star microplates (meropenem), using a ClarioStar or PHERAstar FS microplate reader (BMG LabTech). Representative β-lactamases were tested at the following concentrations:
(§3) VIM-1, 100 pM; NDM-1, 20 pM; IMP-1, 20 pM; and VIM-2, 500 pM. The concentration of FC5 employed was 5 μM for all enzymes. IMP-1, VIM-1, VIM-2 and NDM-1 inhibition assays were screened in “MBL buffer” (50 mM HEPES, pH 7.2, 1 μM ZnSO4, 1 μg mL−1 BSA, 0.01% v/v Triton X-100). The initial rates of reaction (measured after 10 min pre-incubation of the NSPC with the enzyme) were assessed by monitoring the fluorescence intensity at λex = 380 nm and λem = 460 nm. Following the determination of initial rates of reaction, the data were fitted using a four-parameter function: log (inhibitor) vs. response, variable slope in GraphPad Prism 6 to obtain IC50 values.6, 7

VIM-2 [2] = target: T2, VIM-2 (Escherichia coli, UniProt Q5U7L7); assay: fluorogenic cephalosporin FC5 MBL inhibition assay, VIM-2; type: biochemical; conditions: FC5 5 μM, enzyme 500 pM, quadruplicate; read-out: pIC50 VIM-2 (converted)
T2 construct: made in house
Experimental: as §1, §2, §3

NDM-1 [3] = target: T3, NDM-1 (Klebsiella pneumoniae, UniProt C7C422); assay: fluorogenic cephalosporin FC5 MBL inhibition assay, NDM-1; type: biochemical; conditions: for IC50: FC5 5 μM, enzyme 20 pM, quadruplicate, read-out: pIC50 NDM-1 (converted); for activity (IC50) for inhibition of NDM-1, in words: FC5 assay
T3 construct: made in house
Experimental: as §1, §2, §3

VIM-1 [4] = target: T4, VIM-1 (Pseudomonas aeruginosa, UniProt A0A0F7KYQ8); assay: fluorogenic cephalosporin FC5 MBL inhibition assay, VIM-1; type: biochemical; conditions: FC5 5 μM, enzyme 100 pM, quadruplicate; for IC50: read-out: pIC50 VIM-1 (converted)
T4 construct: made in house
Experimental: as §1, §2, §3

IMP-1 [5] = target: T1, IMP-1; conditions: determined using 100 μM nitrocefin; cited from earlier work
VIM-2 [6] = target: T2, VIM-2; conditions: determined using 100 μM nitrocefin; cited from earlier work
NDM-1 [7] = target: T3, NDM-1; conditions: determined using 100 μM nitrocefin; cited from earlier work
VIM-2 [8] = target: T2, VIM-2; set-up: method as in PMID 32184250; conditions: determined by measuring hydrolysis of imipenem; cited from earlier work
NDM-1 [9] = target: T3, NDM-1; set-up: method as in PMID 32184250; conditions: determined by measuring hydrolysis of imipenem; cited from earlier work
IMP-1 [10] = target: T1, IMP-1; set-up: method as in PMID 32184250; conditions: determined by measuring hydrolysis of imipenem; cited from earlier work
[11] = tested on: K. pneumoniae IR43 blaNDM-1; set-up: method as in PMID 31454231; conditions: strain IR43, VNRX at 10 μg mL^–1 (printed in the [I] 8 row); cited from earlier work
VIM-2 [12] = target: T2, VIM-2; conditions: cited from earlier work
VIM-1 [13] = target: T4, VIM-1; conditions: cited from earlier work
IMP-1 [14] = target: T1, IMP-1; conditions: cited from earlier work
[15] = tested on: K. pneumoniae B68-1 blaNDM-1; set-up: method as in PMID 31454231; conditions: strain B68-1, VNRX at 10 μg mL^–1 (printed in the [I] 8 row); cited from earlier work
E. coli IR57 blaNDM-1 = tested on: E. coli IR57 blaNDM-1; set-up: method as in PMID 31454231; conditions: strain IR57, VNRX at 10 μg mL^–1 (printed in the [I] 8 row); cited from earlier work
E. coli S117 blaNDM-1 = tested on: E. coli S117 blaNDM-1; set-up: method as in PMID 31454231; conditions: strain S117, VNRX at 10 μg mL^–1 (printed in the [I] 8 row); cited from earlier work

T3 sequence (C7C422 29-270, looked up, species assumed): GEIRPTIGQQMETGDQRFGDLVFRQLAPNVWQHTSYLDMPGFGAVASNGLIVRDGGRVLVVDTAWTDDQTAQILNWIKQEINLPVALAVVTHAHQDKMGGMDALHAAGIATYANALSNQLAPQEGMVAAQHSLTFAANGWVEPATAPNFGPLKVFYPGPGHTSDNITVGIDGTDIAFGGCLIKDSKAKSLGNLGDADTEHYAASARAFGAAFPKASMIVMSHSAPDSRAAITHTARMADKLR
T1 sequence (P52699 19-246, looked up, species assumed): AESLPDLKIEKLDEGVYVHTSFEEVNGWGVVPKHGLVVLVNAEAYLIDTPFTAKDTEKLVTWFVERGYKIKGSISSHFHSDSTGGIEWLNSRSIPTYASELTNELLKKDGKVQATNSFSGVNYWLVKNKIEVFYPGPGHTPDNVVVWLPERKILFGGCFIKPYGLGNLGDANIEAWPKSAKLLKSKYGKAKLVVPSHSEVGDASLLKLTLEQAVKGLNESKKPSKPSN

Row | Structure (SMILES) | IC50 (IMP-1 [1]) | IC50 (VIM-2 [2]) | IC50 (NDM-1 [3]) | IC50 (VIM-1 [4]) | further results
1 | NS(=O)(=O)n1ccc(-c2ccc(C3CCNCC3)cc2)c1C(=O)O [AMRC276] | – | – | – | – | pIC50 IMP-1 (IMP-1 [5]): 7.4[22]; pIC50 VIM-2 (VIM-2 [6]): 4.2[22]; pIC50 NDM-1 (NDM-1 [7]): 6.8[22]
2 | NS(=O)(=O)n1ccc(-c2ccc(=O)[nH]c2)c1C(=O)O [AMRC364] | – | – | – | – | pIC50 IMP-1 (IMP-1 [5]): 5.7[22]; pIC50 VIM-2 (VIM-2 [6]): 4.4[22]; pIC50 NDM-1 (NDM-1 [7]): 5.6[22]
3 | CS(=O)(=O)c1ccc(-c2ccn(S(N)(=O)=O)c2C(=O)O)cc1 [AMRC439] | – | – | – | – | pIC50 IMP-1 (IMP-1 [5]): 6.3[22]; pIC50 VIM-2 (VIM-2 [6]): 4.3[22]; pIC50 NDM-1 (NDM-1 [7]): 6.4[22]
4 | CCc1c(C(=O)O)c(S(N)(=O)=O)c(CC)n1C [SPC] | – | – | – | – | pIC50 VIM-2 (VIM-2 [8]): 7.7[21]; pIC50 NDM-1 (NDM-1 [9]): 6.0[21]; pIC50 IMP-1 (IMP-1 [10]): 6.6[21]
5 | NC(=O)c1ccc(-c2ccn(S(N)(=O)=O)c2C(=O)O)cc1 [compound 8] | 2.51 nM | 158 nM | 12.6 nM | 79.4 nM | –
6 | Nc1ccc(-c2ccn(S(N)(=O)=O)c2C(=O)[O-])cn1.[Na+] [compound 9] | 1 nM | 200 nM | 12.6 nM | 316 nM | pIC50 IMP-1 (IMP-1 [5]): 6.4[22]; pIC50 VIM-2 (VIM-2 [6]): 4.5[22]; pIC50 NDM-1 (NDM-1 [7]): 6.1[22]
7 | NS(=O)(=O)n1ccc(-c2cn[nH]c2)c1C(=O)O [compound 10] | 1.26 nM | 15.8 nM | 7.94 nM | 79.4 nM | activity (IC50) for inhibition of NDM-1, in words (NDM-1 [3]): nanomolar potency
8 | Nc1ncc(-c2ccn(S(N)(=O)=O)c2C(=O)O)cn1 [compound 11] | 6.31 nM | 50.1 nM | 12.6 nM | 39.8 nM | –
9 | N=C1NCC(c2ccn(S(N)(=O)=O)c2C(=O)O)CN1 (centres unmarked) [compound 12] | 50.1 nM | 12.6 nM | 316 nM | 3.16 nM | –
10 | NS(=O)(=O)n1ccc(-c2ccc(N3CCOCC3)cc2)c1C(=O)O [compound 13] | < 0.631 nM | 158 nM | 1.58 nM | 251 nM | activity (IC50) for inhibition of NDM-1, in words (NDM-1 [3]): nanomolar potency
11 | Nc1nc2ccc(-c3ccn(S(N)(=O)=O)c3C(=O)O)cn2n1 [compound 14, 3-(2-Amino-[1,2,4]triazolo[1,5-a]pyridin-6-yl)-1-sulfamoyl-1H-pyrrole-2-carboxylic acid] | 5.01 nM | 6.31 nM | 12.6 nM | 39.8 nM | –
12 | NCCN[C@H]1CC[C@H](CC(=O)N[C@H]2Cc3cccc(C(=O)O)c3OB2O)CC1 [taniborbactam] | – | – | – | – | MIC of MEM in combination with VNRX [11]: 0.25 μg mL^–1; pIC50 VIM-2 (VIM-2 [12]): 8.3[41]; pIC50 VIM-1 (VIM-1 [13]): 8.1[41]; pIC50 IMP-1 (IMP-1 [14]): 5.6[41]; MIC of MEM in combination with VNRX [15]: 0.5 μg mL^–1; MIC of MEM in combination with VNRX (E. coli IR57 blaNDM-1): 0.5 μg mL^–1; MIC of MEM in combination with VNRX (E. coli S117 blaNDM-1): 1 μg mL^–1

More lines, main results first:

Row | IC50 (IMP-1 [1]) | IC50 (VIM-2 [2]) | IC50 (NDM-1 [3]) | IC50 (VIM-1 [4]) | Structure (SMILES) | further results
13 | 0.631 nM | 20 nM | 7.94 nM | 126 nM | NS(=O)(=O)n1ccc(-c2ccc(F)cc2)c1C(=O)O [6a, 3-(4-Fluorophenyl)-1-sulfamoyl-1H-pyrrole-2-carboxylic acid] | activity (IC50) for inhibition of NDM-1, in words (NDM-1 [3]): nanomolar potency
14 | 1.26 nM | 31.6 nM | 6.31 nM | – | NS(=O)(=O)n1ccc(-c2ccc(F)cc2)c1C(=O)[O-].[Na+] [6b] | activity (IC50) for inhibition of NDM-1, in words (NDM-1 [3]): nanomolar potency; pIC50 VIM-1 (VIM-1 [4]): 6.9
